Laboratory results reported in ChEMBL document CHEMBL1201862, “PubChem BioAssay data set” (2004).
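Where inhibition never reached the appropriate level, the endpoint shown equals the highest concentration tested. Otherwise, values were interpolated linearly from a five-concentration, 48-hour dose response in 96-well plates. The concentration for 50% growth inhibition is given as GI50.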 Calls of active or inactive are those of the source. Rule as the data show it: active = GI50 up to about 1.1 µM and inactive = higher.

Assays:
Assay in all cases: inhibition of tumour cell growth, NCI panel, 48 h
[1] = tested on: HCT-116
[2] = tested on: HT-29
[3] = tested on: M14
[4] = tested on: Malme-3M
[5] = tested on: NCI-H23
[6] = tested on: NCI-H522
[7] = tested on: OVCAR-3
[8] = tested on: OVCAR-4
[9] = tested on: SF-268
[10] = tested on: SF-295
[11] = tested on: SF-539
[12] = tested on: SK-MEL-5
[13] = tested on: SK-OV-3
[14] = tested on: SNB-75
[15] = tested on: U-251
[16] = tested on: UACC-62

Measured: GI50

N#Cc1cc([N+](=O)[O-])ccc1NC(=O)C(=O)C(C(=O)/C=C/c1ccccc1)C1OC(=O)c2ccccc21 (stereo not given)
inactive: [1] > 100 µM | [2] > 100 µM | [3] > 100 µM | [4] > 100 µM | [5] > 100 µM | [6] > 100 µM | [7] > 100 µM | [8] > 100 µM | [9] > 100 µM | [10] > 100 µM | [11] > 100 µM | [12] > 100 µM | [13] > 100 µM | [14] > 100 µM | [15] > 100 µM | [16] > 100 µM

CC1=C(C(=O)Nc2cccc(Cl)c2)C(c2ccccc2O)C(C(=O)Nc2cccc(Cl)c2)=C(C)N1
inactive: [2] 18.8 µM | [3] 17.4 µM | [4] 19.4 µM | [5] 17.3 µM | [6] 17.1 µM | [7] 20.6 µM | [8] 18.3 µM | [9] 17.7 µM | [10] 22.1 µM | [11] 16.7 µM | [12] 17.4 µM | [13] 24.3 µM | [14] 14.9 µM | [15] 19.9 µM

NN1C(=O)C(CCO)S/C1=N/N=C1/SC(CCO)C(=O)N1N (stereo not given)
inactive: [1] > 100 µM | [2] > 100 µM | [3] > 100 µM | [4] > 100 µM | [5] > 100 µM | [6] > 100 µM | [7] > 100 µM | [8] > 100 µM | [9] > 100 µM | [10] > 100 µM | [11] > 100 µM | [12] > 100 µM | [13] > 100 µM | [14] > 100 µM | [15] > 100 µM | [16] > 100 µM

CCOc1ccc(NC(=O)/C(CC(=O)c2c[n+]([O-])c3ccccc3[n+]2[O-])=N\OCCCc2ccccc2)cc1
inactive: [1] > 100 µM | [2] > 100 µM | [3] > 100 µM | [4] > 100 µM | [5] > 100 µM | [6] > 100 µM | [7] > 100 µM | [8] > 100 µM | [9] > 100 µM | [10] > 100 µM | [11] > 100 µM | [13] > 100 µM | [14] > 100 µM | [15] > 100 µM | [16] > 100 µM

CCCC1N2CCCCC2[C@@H]2c3[nH]c4ccccc4c3CCN12 (stereo not given in full)
inactive: [1] > 100 µM | [2] > 100 µM | [3] > 100 µM | [4] 25.8 µM | [5] > 100 µM | [7] > 100 µM | [8] > 100 µM | [9] > 100 µM | [10] > 100 µM | [11] > 100 µM | [12] > 100 µM | [13] > 100 µM | [14] 32.3 µM | [15] > 100 µM | [16] 85.1 µM

COc1cc(-c2c(C)c(C)nc(OC)c2C#N)cc(OC)c1OC
inactive: [1] > 100 µM | [2] > 100 µM | [3] > 100 µM | [4] > 100 µM | [5] > 100 µM | [7] > 100 µM | [8] 61 µM | [9] > 100 µM | [10] 53.6 µM | [11] > 100 µM | [12] > 100 µM | [13] > 100 µM | [14] 44.2 µM | [15] > 100 µM | [16] 40.6 µM

CC(=O)OC1CC2(c3ccccc3)C(=O)c3ccccc3N2O1 (stereo not given)
inactive: [1] > 100 µM | [2] > 100 µM | [3] > 100 µM | [4] > 100 µM | [5] > 100 µM | [6] > 100 µM | [8] > 100 µM | [9] > 100 µM | [10] > 100 µM | [11] > 100 µM | [12] > 100 µM | [13] > 100 µM | [14] > 100 µM | [15] > 100 µM | [16] > 100 µM

c1ccc(SC2(Sc3ccccc3)CCCC2)cc1
inactive: [1] > 100 µM | [3] > 100 µM | [5] > 100 µM | [6] > 100 µM | [7] > 100 µM | [8] > 100 µM | [9] > 100 µM | [10] > 100 µM | [11] > 100 µM | [12] > 100 µM | [13] > 100 µM | [14] > 100 µM | [15] > 100 µM | [16] > 100 µM

COc1ccc(NC(=O)C(=O)C(C(=O)c2ccccc2)C2OC(=O)c3ccccc32)c([N+](=O)[O-])c1 (stereo not given)
inactive: [1] > 100 µM | [2] > 100 µM | [3] > 100 µM | [4] > 100 µM | [5] > 100 µM | [6] > 100 µM | [8] > 100 µM | [9] > 100 µM | [10] > 100 µM | [11] > 100 µM | [12] > 100 µM | [13] > 100 µM | [14] > 100 µM | [15] > 100 µM | [16] > 100 µM

O=C(/C=C/c1ccccc1)CC1OC(=O)c2ccccc21 (stereo not given)
inactive: [1] 31.2 µM | [2] > 100 µM | [3] > 100 µM | [4] > 100 µM | [5] 47.1 µM | [6] 31.3 µM | [8] > 100 µM | [9] > 100 µM | [10] 85.5 µM | [11] 36.1 µM | [12] > 100 µM | [13] > 100 µM | [14] 45.5 µM | [15] > 100 µM | [16] 26.1 µM

CCC(C)(C)C(=O)O[C@H]1C[C@@H](C)C=C2C=C[C@H](C)[C@H](CC[C@@H]3C[C@@H](O)CC(=O)O3)[C@H]21 [SIMVASTATIN]
active: [5] 0.982 µM | [14] 0.658 µM | [15] 0.766 µM | [16] 0.469 µM
inactive: [1] 3.27 µM | [2] 6.85 µM | [3] 2.25 µM | [7] 23.1 µM | [8] > 30 µM | [10] 1.13 µM | [11] 9.04 µM | [13] 1.72 µM

Cc1cc(C)nc(NS(=O)(=O)c2ccc(Nc3c4ccccc4nc4c(C(=O)Nc5ccc(S(=O)(=O)N=C(N)N)cc5)cccc34)cc2)n1
inactive: [2] > 100 µM | [3] 90.4 µM | [4] 78.7 µM | [5] > 100 µM | [6] > 100 µM | [7] > 100 µM | [8] > 100 µM | [9] > 100 µM | [11] > 100 µM | [12] > 100 µM | [13] > 100 µM | [14] 27.2 µM | [15] 98.9 µM | [16] > 100 µM

COC(=O)C12CCC(CC1=O)C2(C)C (stereo not given)
inactive: [1] > 100 µM | [2] > 100 µM | [3] > 100 µM | [4] > 100 µM | [5] > 100 µM | [7] > 100 µM | [8] > 100 µM | [10] > 100 µM | [11] > 100 µM | [12] > 100 µM | [13] > 100 µM | [14] 40.2 µM | [15] > 100 µM | [16] > 100 µM
